Read-outs that look alike come from different tables or passages of the source.
Tests used:
[1] = Stability of fluticasone propionate in aqueous SBE6.1-γ-CD solution by HPLC (Example 13); type: physicochemical; settings: for Stability by HPLC: 240 μg/mL in 10% SBE-γ-CD
Experimental: SBE-γ-CD is suitable for stabilizing corticosteroids in aqueous solutions. A stability study was conducted using fluticasone propionate in aqueous solutions stored at 25° C. or 40° C. having a pH of 4.5 or 6.0.
Fluticasone propionate. A citrate buffer solution at a pH of 4.5 was prepared by mixing various portions of 0.003 M citric acid with 0.003 M of trisodium citrate. A phosphate buffer solution at a pH of 6.0 was prepared by mixing various portions of 0.003 M monobasic sodium phosphate with 0.003 M of dibasic sodium phosphate. These stock solutions contained 10% w/v SBE-Gamma (D.S.=6.1). An excess of fluticasone propionate was added to the vials and equilibrated on a rocker for three days. The samples were then filtered using a PVDF 0.22 μm syringe filter. Aliquots of the solutions were placed into clear glass 2 mL serum vials with aluminum crimp caps and daikyo flurotec septums, and stored at 25° C. and 40° C. Control samples were stored at 5° C. but are not reported here. HPLC analysis of the samples was performed initially, (at time 0), and after 30, 60, 90, and 120 days storage. A stability-indicating HPLC method was used.

[2] = Stability of mometasone furoate in aqueous SBE6.1-γ-CD solution by HPLC (Example 13); type: physicochemical; settings: for Stability by HPLC: 240 μg/mL in […] SBE-γ-CD
Experimental: A similar study was conducted for mometasone furoate except that a pH of 3.5 or 4.5 was used.
Mometasone furoate. Citrate buffer solutions at a pH of 3.5 and 4.5 were prepared by mixing various portions of 3 mM citric acid with 3 mM sodium citrate. […] An excess of mometasone furoate was added to the vials and equilibrated on a rocker for three days. The samples were then filtered using a PVDF 0.22 μm syringe filter. Aliquots of the solutions were placed into serum vials with rubber stoppers and aluminum crimp seal caps, and stored at 25° C. and 40° C. Control samples were stored at 5° C. […] A stability-indicating HPLC method was used.

[3] = nasal spray in aqueous sulfobutylether-β-cyclodextrin buffer, healthy volunteers; cited from earlier work
[4] = during the time period of observation, concentrations typically used to solubilize pharmaceutical formulations; cited from earlier work

CCC(=O)O[C@]1(C(=O)CO)[C@@H](C)C[C@H]2[C@@H]3CCC4=CC(=O)C=C[C@]4(C)[C@@]3(Cl)[C@@H](O)C[C@@]21C [Beclomethasone 17-monopropionate, beclomethasone 17-monopropionate]
Solubility of beclomethasone form (0.04 M SBE3.4 γ-CD): 0.04 M → 10621.6 μg/mL
Solubility of beclomethasone form (0.04 M SBE5.24 γ-CD): 0.04 M → 9500.8 μg/mL
Solubility of beclomethasone form (0.04 M SBE6.1 γ-CD): 0.04 M → 11666.9 μg/mL
Solubility of beclomethasone form (0.04 M SBE6.7 β-CD): 0.04 M → 6799.6 μg/mL
Solubility of beclomethasone form (0.04 M SBE7.5 γ-CD): 0.04 M → 8539.1 μg/mL
Solubility of beclomethasone form (0.04 M γ-CD): 0.04 M → 136.9 μg/mL

CCC(=O)OCC(=O)[C@@]1(O)[C@@H](C)C[C@H]2[C@@H]3CCC4=CC(=O)C=C[C@]4(C)[C@@]3(Cl)[C@@H](O)C[C@@]21C [Beclomethasone 21-monopropionate, beclomethasone 21-monopropionate]
Solubility of beclomethasone form (0.04 M SBE3.4 γ-CD): 0.04 M → 172.6 μg/mL
Solubility of beclomethasone form (0.04 M SBE5.24 γ-CD): 0.04 M → 139.8 μg/mL
Solubility of beclomethasone form (0.04 M SBE6.1 γ-CD): 0.04 M → 153.8 μg/mL
Solubility of beclomethasone form (0.04 M SBE6.7 β-CD): 0.04 M → 50.6 μg/mL
Solubility of beclomethasone form (0.04 M SBE7.5 γ-CD): 0.04 M → 122.4 μg/mL
Solubility of beclomethasone form (0.04 M γ-CD): 0.04 M → 9.4 μg/mL

CCC(=O)O[C@]1(C(=O)SCF)[C@H](C)C[C@H]2[C@@H]3C[C@H](F)C4=CC(=O)C=C[C@]4(C)[C@@]3(F)[C@@H](O)C[C@@]21C [Fluticasone propionate, fluticasone propionate]
Stability by HPLC ([1]; pH = 4.5/25° C., 1 Month): 97.88 Area %
Stability by HPLC ([1]; pH = 4.5/25° C., 2 Months): 98.15 Area %
Stability by HPLC ([1]; pH = 4.5/25° C., 3 Months): 97.74 Area %
Stability by HPLC ([1]; pH = 4.5/25° C., 4 Months): 97.36 Area %
Stability by HPLC ([1]; pH = 4.5/25° C., Initial): 97.99 Area %
Stability by HPLC ([1]; pH = 4.5/40° C., 1 Month): 97.46 Area %
Stability by HPLC ([1]; pH = 4.5/40° C., 2 Months): 97.75 Area %
Stability by HPLC ([1]; pH = 4.5/40° C., 3 Months): 97.41 Area %
Stability by HPLC ([1]; pH = 4.5/40° C., 4 Months): 96.56 Area %
Stability by HPLC ([1]; pH = 4.5/40° C., Initial): 97.84 Area %
change in the amount of fluticasone propionate ([1]; after a period of 4 months in SBE-γ-CD solution): little to no change
T90 ([1]; at both pHs (4.5 and 6.0)): greater than five years
estimated shelf-life ([1]; fluticasone propionate formulation of the invention): greater than two years

C[C@@H]1C[C@H]2[C@@H]3CCC4=CC(=O)C=C[C@]4(C)[C@@]3(Cl)[C@@H](O)C[C@]2(C)[C@@]1(OC(=O)c1ccco1)C(=O)CCl [Mometasone furoate, mometasone furoate]
Stability by HPLC ([2]; pH = 3.5/25° C., 1 Month): 99.74 Area %
Stability by HPLC ([2]; pH = 3.5/25° C., 1 Week): 99.82 Area %
Stability by HPLC ([2]; pH = 3.5/25° C., 2 Months): 99.73 Area %
Stability by HPLC ([2]; pH = 3.5/25° C., 2 Weeks): 99.79 Area %
Stability by HPLC ([2]; pH = 3.5/25° C., 3 Months): 99.68 Area %
Stability by HPLC ([2]; pH = 3.5/25° C., 6 Months): 99.36 Area %
Stability by HPLC ([2]; pH = 3.5/25° C., Initial): 99.72 Area %
Stability by HPLC ([2]; pH = 3.5/40° C., 1 Month): 99.10 Area %
Stability by HPLC ([2]; pH = 3.5/40° C., 1 Week): 99.72 Area %
Stability by HPLC ([2]; pH = 3.5/40° C., 2 Months): 98.56 Area %
Stability by HPLC ([2]; pH = 3.5/40° C., 2 Weeks): 99.55 Area %
Stability by HPLC ([2]; pH = 3.5/40° C., 3 Months): 97.97 Area %
Stability by HPLC ([2]; pH = 3.5/40° C., 6 Months): 94.97 Area %
Stability by HPLC ([2]; pH = 3.5/40° C., Initial): 99.72 Area %
Stability by HPLC ([2]; pH = 4.5/40° C., 1 Month): 99.19 Area %
Stability by HPLC ([2]; pH = 4.5/40° C., 1 Week): 99.72 Area %
Stability by HPLC ([2]; pH = 4.5/40° C., 2 Months): 98.65 Area %
Stability by HPLC ([2]; pH = 4.5/40° C., 2 Weeks): 99.57 Area %
Stability by HPLC ([2]; pH = 4.5/40° C., 3 Months): 97.85 Area %
Stability by HPLC ([2]; pH = 4.5/40° C., 6 Months): 96.01 Area %
Stability by HPLC ([2]; pH = 4.5/40° C., Initial): 99.76 Area %
Stability by HPLC ([2]; pH = 4.5 @ 25° C., 1 Month): 99.73 Area %
Stability by HPLC ([2]; pH = 4.5 @ 25° C., 1 Week): 99.82 Area %
Stability by HPLC ([2]; pH = 4.5 @ 25° C., 2 Months): 99.71 Area %
Stability by HPLC ([2]; pH = 4.5 @ 25° C., 2 Weeks): 99.81 Area %
Stability by HPLC ([2]; pH = 4.5 @ 25° C., 3 Months): 99.62 Area %
Stability by HPLC ([2]; pH = 4.5 @ 25° C., 6 Months): 99.47 Area %
Stability by HPLC ([2]; pH = 4.5 @ 25° C., Initial): 99.76 Area %
T90 ([2]; both pH's (3.5 and 4.5) at 25° C.): exceed two years
estimated shelf-life ([2]; mometasone furoate formulation of the invention): greater than two years
T90, stable for ([2]; pH 4.5, 25° C.): six to eight years

Cc1ncc2n1-c1ccc(Cl)cc1C(c1ccccc1F)=NC2 [midazolam]
side effects [3]: No serious side effects

Sulfobutyl ether β-cyclodextrin [CAPTISOL]
hemolytic behavior [4]: essentially no hemolytic behavior
